Key:
MCF-7 cells [1] = assay: MTT (WST-1) assay for cytotoxicity effect of compound A on tumor cells; conditions: 24 hours treatment
Method: The human breast cancer cell line, MCF-7, was obtained from American Type Cell Collection (ATCC) (Rockville, Mo., U.S.A.). The cells were cultured to 70-80% confluence in Dulbecco's modified Eagle medium (DMEM) (Gibco, Grand Island, N.Y., U.S.A.) with 10% fetal bovine serum (FBS) (Gibco) at 37° C. and 5% CO2. MCF-7 cells were plated overnight in a 96-well plate (4,000 cells per well). […] Next, 10 μl/well of WST-1/ECS solution from the Quick Cell Proliferation Colorimetric Assay Kit (BioVision, Inc., Milptas, Calif., U.S.A.) was added, and the solution was incubated for 2 hours at 37° C. and 5% CO2. […] The half maximal inhibitory concentrations (IC50s) were calculated from linear regression from the absorbance optical density (OD) of each triplicate concentration.

MCF-7 cells [2] = assay: Cytosolic oxidative stress; type: cell-based, human
MCF-7 cells [3] = assay: Fluorescent microscopy of subcellular distribution; type: cell-based, human; conditions: 120 μg/ml, observed at 60, 120 and 360 minutes
Method: Low numbers of MCF-7 cells were seeded into 8-well plate (3,000 cells/well) overnight.

MCF-7 cells [4] = assay: Induction of MCF-7 cell apoptosis; type: cell-based, human
MCF-7 cells [5] = assay: Cell cycle analysis; type: cell-based, human

Method for Lipid solubility in oil: The suspended were vortexed and centrifuged at 3000 RPM, 10 mins periodically. Oil solvent volume was stepwise increased till completely soluble was observed and the soluble concentration were determined (Table1). The solutions were left at 24° C. overnight and were centrifuged at 5000 RPM for 20 mins. […] The suspensions were vigorously vortex and left at room temperature.

Row | Molecule | Solubility in Oil (40° C.) (Lipid solubility in oil; Canola Oil) | Solubility in Oil (40° C.) (Lipid solubility in oil; Ethiodized Oil) | Solubility in Oil (40° C.) (Lipid solubility in oil; Olive Oil) | IC60 (MCF-7 cells [1]) | cytosolic oxidative stress (MCF-7 cells [2]) | entry into the nucleus (subcellular distribution) (MCF-7 cells [3]) | induction of MCF-7 cell apoptosis (MCF-7 cells [4]) | interference with the cell cycle (MCF-7 cells [5])
1 | COc1cccc2c1C(=O)c1c(O)c3c(c(O)c1C2=O)C[C@@](O)(C(=O)CO)C[C@@H]3O[C@H]1C[C@H](N)[C@H](O)[C@H](C)O1 [Doxorubicin] | less than 0.0001 mg/100 ml | less than 0.0001 mg/100 ml | less than 0.0001 mg/100 ml |  |  |  |  | 
2 | ((3bS)-7-hydroxy-11a-methyl-1H,2H,3H,3aH,3bH,4H,5H,9bH,10H,11H,11aH-cyclopenta[a]phenanthren-1-yl N-[(2S,3S,6R)-3-hydroxy-2-methyl-6-{[(1S,3S)-3,5,12-trihydroxy-3-(2-hydroxyacetyl)-10-methoxy-6,11-dioxo-1,2,3,4,6,11-hexahydrotetracen-1-yl]oxy}oxan-4-yl]carbamate) [Compound A] |  |  |  | ~120 mg/L | increased cytosolic oxidative stress | without entering the nucleus | rapidly induced MCF-7 cell apoptosis | did not interfere with the cell cycle

Source: patent US10576092B1, “Doxorubicin derivatives and uses thereof” (S.S.Manufacturing Co. Ltd, priority 2019, dated 2020)
